Assay results reported in article PMC3234165 (Biochemistry, 2011).
Read-outs that look alike come from different tables or passages of the source.

Columns and labels:
[1] = target: Kv1.4 potassium channel (Rattus norvegicus, UniProt P15385+Q9R0C9); test: Whole cell patch clamp, HEK-293 cells co-expressing Kv1.4 and sigma-1 receptor; format: cell-based; conditions: for average inhibition of the Kv1.4 potassium channel: concentrations up to 300 μM, HEK-293 with Kv1.4 and sigma-1 receptor
[2] = target: pure guinea pig sigma-1 receptor (Cavia porcellus, UniProt Q60492); test: Competitive displacement of [3H]-; format: binding
Chain of pure guinea pig sigma-1 receptor (Q60492 whole entry): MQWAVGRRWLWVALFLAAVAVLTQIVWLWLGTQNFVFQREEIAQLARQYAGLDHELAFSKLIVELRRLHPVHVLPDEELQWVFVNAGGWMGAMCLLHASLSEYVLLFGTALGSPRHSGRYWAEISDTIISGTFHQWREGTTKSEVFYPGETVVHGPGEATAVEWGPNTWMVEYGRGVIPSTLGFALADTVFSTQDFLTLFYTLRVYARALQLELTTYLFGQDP

[3] = target: T1, sigma-2 receptor (sigma-2 sites) (Rattus norvegicus, UniProt Q5U3Y7); test: Competitive displacement of [3H]-DTG binding, rat liver membranes; conditions: for KI sigma-2 sites: rat liver membranes in the presence of 100 nM (+)-pentazocine, [3H]-DTG; for sigma-2/sigma-1: ratio from the KI value of sigma-1 and sigma-2 sites (membranes)
T1 sequence (Q5U3Y7 1-176): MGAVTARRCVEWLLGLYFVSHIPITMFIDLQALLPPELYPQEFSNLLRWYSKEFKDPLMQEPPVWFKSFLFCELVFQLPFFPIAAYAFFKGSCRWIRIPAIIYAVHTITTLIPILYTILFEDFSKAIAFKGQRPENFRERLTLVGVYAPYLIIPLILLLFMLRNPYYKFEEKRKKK

[4] = target: H3 (histamine receptor type 3) (Homo sapiens, UniProt Q9Y5N1); test: NIMH PDSP secondary binding assay
Chain of H3 (histamine receptor type 3) (Q9Y5N1 whole entry): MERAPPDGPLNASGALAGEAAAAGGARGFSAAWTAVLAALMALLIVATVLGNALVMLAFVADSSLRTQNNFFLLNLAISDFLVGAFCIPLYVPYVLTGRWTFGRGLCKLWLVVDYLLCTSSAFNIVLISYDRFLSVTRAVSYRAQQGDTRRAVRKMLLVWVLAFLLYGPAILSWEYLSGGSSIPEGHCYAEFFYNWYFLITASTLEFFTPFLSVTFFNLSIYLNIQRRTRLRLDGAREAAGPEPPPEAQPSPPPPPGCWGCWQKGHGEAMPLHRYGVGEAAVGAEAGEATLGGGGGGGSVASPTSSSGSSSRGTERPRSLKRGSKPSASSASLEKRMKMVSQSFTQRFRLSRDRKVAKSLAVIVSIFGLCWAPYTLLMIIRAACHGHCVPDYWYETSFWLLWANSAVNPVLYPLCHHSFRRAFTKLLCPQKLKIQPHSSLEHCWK

[5] = target: 5HT1B (serotonin receptor subtype 1B) (Homo sapiens, UniProt P28222); test: NIMH PDSP secondary binding assay
[6] = target: T2, 5HT1A (serotonin receptor subtype 1A) (Homo sapiens, UniProt P08908); test: NIMH PDSP secondary binding assay; conditions: KI 5HT1A
T2 sequence (P08908 1-422): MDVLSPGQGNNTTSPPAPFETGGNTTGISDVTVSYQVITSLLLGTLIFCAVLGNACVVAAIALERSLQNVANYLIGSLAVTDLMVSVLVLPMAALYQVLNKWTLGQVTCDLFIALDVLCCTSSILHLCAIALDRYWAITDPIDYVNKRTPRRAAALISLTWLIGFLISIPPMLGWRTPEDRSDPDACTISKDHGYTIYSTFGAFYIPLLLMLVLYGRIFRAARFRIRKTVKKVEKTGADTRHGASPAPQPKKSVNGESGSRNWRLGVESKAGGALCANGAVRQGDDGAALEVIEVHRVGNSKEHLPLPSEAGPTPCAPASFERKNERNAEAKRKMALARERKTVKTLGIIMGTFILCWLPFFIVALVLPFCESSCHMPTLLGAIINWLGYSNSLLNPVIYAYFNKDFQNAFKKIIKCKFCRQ

[7] = target: M3 (muscarinic acetylcholine receptor type 3) (Homo sapiens, UniProt P20309); test: NIMH PDSP secondary binding assay
[8] = target: T3, α-1A (α-adrenergic receptor subtype 1A) (Homo sapiens, UniProt P35348); test: NIMH PDSP secondary binding assay
T3 sequence (P35348 1-466): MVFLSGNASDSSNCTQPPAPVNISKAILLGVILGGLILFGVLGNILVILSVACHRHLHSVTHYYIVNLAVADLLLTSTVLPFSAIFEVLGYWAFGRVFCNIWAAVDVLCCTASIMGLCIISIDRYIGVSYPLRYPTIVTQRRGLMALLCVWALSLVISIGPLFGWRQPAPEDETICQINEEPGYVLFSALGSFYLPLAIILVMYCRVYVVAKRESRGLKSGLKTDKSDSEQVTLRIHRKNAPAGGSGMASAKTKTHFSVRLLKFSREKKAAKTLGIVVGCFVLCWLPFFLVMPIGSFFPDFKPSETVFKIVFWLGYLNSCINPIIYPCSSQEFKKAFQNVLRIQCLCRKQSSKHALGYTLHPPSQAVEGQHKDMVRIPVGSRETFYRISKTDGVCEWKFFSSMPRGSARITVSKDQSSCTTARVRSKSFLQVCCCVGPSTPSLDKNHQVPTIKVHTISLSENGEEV

[9] = test system: SK-OV-3; test: Multiplex cytotoxicity assay; format: cell-based; conditions: Homo sapiens, SK-OV-3, read-out: IC50 SK-OV-3
[10] = test system: caspases 3/7, 8, and 9; test: Caspase activation potential; format: cell-based; conditions: data not shown
[11] = target: NET (norepinephrine transporter) (Homo sapiens, UniProt P23975); test: NIMH PDSP secondary binding assay
Chain of NET (norepinephrine transporter) (P23975 whole entry, species assumed): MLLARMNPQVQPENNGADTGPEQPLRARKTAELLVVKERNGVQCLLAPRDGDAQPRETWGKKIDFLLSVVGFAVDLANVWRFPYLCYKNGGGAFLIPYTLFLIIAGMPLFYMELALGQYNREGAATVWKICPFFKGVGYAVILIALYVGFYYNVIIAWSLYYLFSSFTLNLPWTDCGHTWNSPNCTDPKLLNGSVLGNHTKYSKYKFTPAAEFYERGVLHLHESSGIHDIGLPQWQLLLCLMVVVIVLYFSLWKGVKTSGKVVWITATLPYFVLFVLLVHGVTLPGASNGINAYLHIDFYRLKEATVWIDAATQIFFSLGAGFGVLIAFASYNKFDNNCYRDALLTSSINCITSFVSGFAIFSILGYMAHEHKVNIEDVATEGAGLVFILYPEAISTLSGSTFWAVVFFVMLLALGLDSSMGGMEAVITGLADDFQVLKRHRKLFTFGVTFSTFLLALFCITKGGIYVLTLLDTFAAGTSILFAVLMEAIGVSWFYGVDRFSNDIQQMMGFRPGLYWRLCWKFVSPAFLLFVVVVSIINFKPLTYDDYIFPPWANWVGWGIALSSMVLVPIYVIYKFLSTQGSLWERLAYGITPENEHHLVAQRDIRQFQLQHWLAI

[12] = test system: Du145; test: Multiplex cytotoxicity assay; format: cell-based; conditions: Homo sapiens, DU-145, read-out: IC50 Du145
[13] = target: H2 (histamine receptor type 2) (Homo sapiens, UniProt P25021); test: NIMH PDSP secondary binding assay
Chain of H2 (histamine receptor type 2) (P25021 whole entry): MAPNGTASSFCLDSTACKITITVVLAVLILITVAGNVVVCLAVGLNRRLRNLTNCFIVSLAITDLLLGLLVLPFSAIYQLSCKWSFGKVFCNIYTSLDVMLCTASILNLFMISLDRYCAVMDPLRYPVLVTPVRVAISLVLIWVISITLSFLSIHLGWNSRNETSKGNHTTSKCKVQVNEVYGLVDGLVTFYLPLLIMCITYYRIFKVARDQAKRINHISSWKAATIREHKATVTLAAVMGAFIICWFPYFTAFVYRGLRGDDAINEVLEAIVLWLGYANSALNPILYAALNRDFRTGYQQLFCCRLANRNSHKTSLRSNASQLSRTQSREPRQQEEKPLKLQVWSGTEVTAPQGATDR

[14] = target: sigma-1 receptor (Cavia porcellus, UniProt Q60492); test: Saturation binding of [3H]-; design: species or system guinea pig; conditions: GPLM; increasing concentrations of 2b
[15] = test system: A549; test: Multiplex cytotoxicity assay; format: cell-based; conditions: Homo sapiens, A549, read-out: IC50 A549
[16] = test system: SF-268; test: Multiplex cytotoxicity assay; format: cell-based; conditions: Homo sapiens, SF-268, read-out: IC50 SF-268
[17] = target: SERT (serotonin transporter) (Homo sapiens, UniProt P31645); test: NIMH PDSP secondary binding assay
Chain of SERT (serotonin transporter) (P31645 whole entry, species assumed): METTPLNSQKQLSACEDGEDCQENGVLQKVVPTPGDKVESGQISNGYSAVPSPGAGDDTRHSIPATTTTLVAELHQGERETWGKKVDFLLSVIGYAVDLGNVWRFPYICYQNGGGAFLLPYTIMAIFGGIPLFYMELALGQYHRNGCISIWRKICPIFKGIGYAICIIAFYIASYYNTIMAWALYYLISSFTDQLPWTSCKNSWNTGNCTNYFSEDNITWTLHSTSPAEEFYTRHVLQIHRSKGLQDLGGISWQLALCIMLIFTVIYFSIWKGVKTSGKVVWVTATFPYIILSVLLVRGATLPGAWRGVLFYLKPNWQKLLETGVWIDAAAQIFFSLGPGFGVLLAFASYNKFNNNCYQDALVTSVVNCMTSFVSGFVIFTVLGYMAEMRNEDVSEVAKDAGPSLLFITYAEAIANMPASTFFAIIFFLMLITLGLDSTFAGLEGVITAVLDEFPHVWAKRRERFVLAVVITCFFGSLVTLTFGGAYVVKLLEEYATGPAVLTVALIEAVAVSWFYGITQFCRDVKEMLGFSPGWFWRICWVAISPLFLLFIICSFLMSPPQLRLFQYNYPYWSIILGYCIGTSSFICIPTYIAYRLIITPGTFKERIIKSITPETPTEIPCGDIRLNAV

[18] = target: D1 (dopamine receptor type 1) (Homo sapiens, UniProt P21728); test: NIMH PDSP secondary binding assay
Chain of D1 (dopamine receptor type 1) (P21728 whole entry): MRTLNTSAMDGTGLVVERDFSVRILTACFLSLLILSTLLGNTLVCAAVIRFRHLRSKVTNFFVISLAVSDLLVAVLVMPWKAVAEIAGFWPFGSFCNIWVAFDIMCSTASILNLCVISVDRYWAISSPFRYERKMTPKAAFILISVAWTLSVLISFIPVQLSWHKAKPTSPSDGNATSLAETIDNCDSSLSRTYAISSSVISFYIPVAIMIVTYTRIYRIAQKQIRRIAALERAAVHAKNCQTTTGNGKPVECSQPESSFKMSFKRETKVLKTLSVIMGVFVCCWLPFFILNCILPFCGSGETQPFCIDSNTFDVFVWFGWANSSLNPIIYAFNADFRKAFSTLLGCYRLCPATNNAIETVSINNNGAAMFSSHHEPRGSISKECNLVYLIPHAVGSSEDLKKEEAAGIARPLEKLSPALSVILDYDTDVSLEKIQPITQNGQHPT

[19] = target: M4 (muscarinic acetylcholine receptor type 4) (Homo sapiens, UniProt P08173); test: NIMH PDSP secondary binding assay
[20] = target: T4, Sig-2R, sigma-2 receptor (Rattus norvegicus, UniProt Q5U3Y7); test: NIMH PDSP secondary binding assay
T4 sequence (Q5U3Y7 1-176): T1 sequence (Q5U3Y7 1-176)

[21] = target: 5HT2B (serotonin receptor subtype 2B) (Homo sapiens, UniProt P41595); test: NIMH PDSP secondary binding assay
Chain of 5HT2B (serotonin receptor subtype 2B) (P41595 whole entry, species assumed): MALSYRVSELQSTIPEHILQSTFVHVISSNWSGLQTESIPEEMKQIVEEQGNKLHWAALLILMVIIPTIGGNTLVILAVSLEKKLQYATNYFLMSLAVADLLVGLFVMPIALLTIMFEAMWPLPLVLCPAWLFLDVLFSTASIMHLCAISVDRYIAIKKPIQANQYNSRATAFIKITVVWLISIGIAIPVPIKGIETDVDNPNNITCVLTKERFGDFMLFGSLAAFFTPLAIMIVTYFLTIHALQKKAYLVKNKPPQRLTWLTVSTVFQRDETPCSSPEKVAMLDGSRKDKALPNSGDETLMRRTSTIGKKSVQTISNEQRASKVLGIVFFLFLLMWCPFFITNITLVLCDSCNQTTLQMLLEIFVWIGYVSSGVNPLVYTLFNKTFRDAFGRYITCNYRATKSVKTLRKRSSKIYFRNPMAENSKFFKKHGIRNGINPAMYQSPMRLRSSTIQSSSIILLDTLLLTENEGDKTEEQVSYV

[22] = test system: H1299; test: Multiplex cytotoxicity assay; format: cell-based; conditions: Homo sapiens, NCI-H1299, read-out: IC50 H1299
[23] = test system: MCF-10A; test: Multiplex cytotoxicity assay; format: cell-based; conditions: Homo sapiens, read-out: IC50 MCF-10A
[24] = test system: HT-29; test: Multiplex cytotoxicity assay; format: cell-based; conditions: Homo sapiens, HT-29, read-out: IC50 HT-29
[25] = test system: MDA-MB-231; test: Multiplex cytotoxicity assay; format: cell-based; conditions: Homo sapiens, MDA-MB-231, read-out: IC50 MDA-MB-231
[26] = test system: HCT-15; test: Multiplex cytotoxicity assay; format: cell-based; conditions: Homo sapiens, HCT-15, read-out: IC50 HCT-15
[27] = target: M5 (muscarinic acetylcholine receptor type 5) (Homo sapiens, UniProt P08912); test: NIMH PDSP secondary binding assay
[28] = target: 5HT7 (serotonin receptor subtype 7) (Homo sapiens, UniProt P34969); test: NIMH PDSP secondary binding assay
Chain of 5HT7 (serotonin receptor subtype 7) (P34969 whole entry, species assumed): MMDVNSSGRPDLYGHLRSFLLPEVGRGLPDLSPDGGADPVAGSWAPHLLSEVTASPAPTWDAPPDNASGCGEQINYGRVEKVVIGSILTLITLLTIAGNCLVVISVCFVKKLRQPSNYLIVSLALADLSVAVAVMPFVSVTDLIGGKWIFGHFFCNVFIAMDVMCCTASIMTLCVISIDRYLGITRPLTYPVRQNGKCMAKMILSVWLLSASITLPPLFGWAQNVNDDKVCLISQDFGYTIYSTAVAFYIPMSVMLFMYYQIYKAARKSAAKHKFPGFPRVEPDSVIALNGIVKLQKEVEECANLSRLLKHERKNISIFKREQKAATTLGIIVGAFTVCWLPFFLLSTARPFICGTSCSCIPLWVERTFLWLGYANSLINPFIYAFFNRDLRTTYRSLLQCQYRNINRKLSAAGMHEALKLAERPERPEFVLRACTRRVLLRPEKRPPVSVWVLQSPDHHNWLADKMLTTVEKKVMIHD

[29] = target: β-2 (β-adrenergic receptor subtype 2) (Homo sapiens, UniProt P07550); test: NIMH PDSP secondary binding assay
[30] = target: β-3 (β-adrenergic receptor subtype 3) (Homo sapiens, UniProt P13945); test: NIMH PDSP secondary binding assay
Chain of β-3 (β-adrenergic receptor subtype 3) (P13945 whole entry): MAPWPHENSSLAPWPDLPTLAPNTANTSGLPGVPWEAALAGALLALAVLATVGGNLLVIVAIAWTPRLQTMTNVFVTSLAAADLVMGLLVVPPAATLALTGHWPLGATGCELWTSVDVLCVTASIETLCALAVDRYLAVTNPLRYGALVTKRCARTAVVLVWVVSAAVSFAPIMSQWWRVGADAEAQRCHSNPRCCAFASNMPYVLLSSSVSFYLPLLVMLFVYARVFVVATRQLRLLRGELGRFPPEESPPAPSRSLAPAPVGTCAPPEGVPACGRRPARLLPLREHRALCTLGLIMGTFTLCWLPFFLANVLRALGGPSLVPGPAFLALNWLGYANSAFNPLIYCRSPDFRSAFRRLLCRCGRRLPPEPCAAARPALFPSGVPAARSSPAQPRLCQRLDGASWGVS

[31] = test system: MCF-7; test: Multiplex cytotoxicity assay; format: cell-based; conditions: Homo sapiens, MCF7, read-out: IC50 MCF-7
[32] = target: Sig-1R, sigma-1 receptor (Rattus norvegicus, UniProt Q9R0C9); test: NIMH PDSP secondary binding assay
[33] = test system: NCI-H460; test: Multiplex cytotoxicity assay; format: cell-based; conditions: Homo sapiens, NCI-H460, read-out: IC50 NCI-H460
[34] = test system: tumors grown from the mouse mammary adenocarcinoma cell line 66; conditions: nude mice with tumors from mouse mammary adenocarcinoma cell line 66; cited from earlier work
[35] = test system: caspases 3/7; conditions: MCF-7 and MDA MB 468 mammary carcinoma; ref Spruce et al. 2004; cited from earlier work
[36] = test system: caspases 3/7; test: Caspase activation by rimcazole in cancer cell lines; format: cell-based; conditions: any cancer cell lines tested, including MCF-7
[37] = read-out: KI pure sigma-1 receptor, Table 1, [3H]-(+)-pentazocine displacement

Chain of Kv1.4 potassium channel (P15385 whole entry): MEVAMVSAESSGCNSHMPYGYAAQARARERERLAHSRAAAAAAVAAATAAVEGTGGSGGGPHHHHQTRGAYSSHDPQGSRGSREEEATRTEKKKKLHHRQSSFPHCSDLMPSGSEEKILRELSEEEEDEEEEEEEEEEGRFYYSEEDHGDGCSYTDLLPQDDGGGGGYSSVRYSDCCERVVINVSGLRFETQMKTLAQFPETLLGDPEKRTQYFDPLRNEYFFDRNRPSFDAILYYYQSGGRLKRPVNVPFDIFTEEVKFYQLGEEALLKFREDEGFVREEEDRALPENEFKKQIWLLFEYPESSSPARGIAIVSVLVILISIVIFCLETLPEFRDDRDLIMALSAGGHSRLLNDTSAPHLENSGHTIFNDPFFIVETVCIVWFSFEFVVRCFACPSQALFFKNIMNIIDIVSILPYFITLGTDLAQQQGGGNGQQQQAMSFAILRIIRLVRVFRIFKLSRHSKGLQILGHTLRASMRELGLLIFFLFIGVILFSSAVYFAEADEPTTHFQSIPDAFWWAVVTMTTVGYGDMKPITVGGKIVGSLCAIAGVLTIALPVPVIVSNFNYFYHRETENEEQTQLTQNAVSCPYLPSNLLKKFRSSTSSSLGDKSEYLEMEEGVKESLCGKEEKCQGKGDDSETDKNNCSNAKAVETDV
Chain of Kv1.4 potassium channel (Q9R0C9 whole entry): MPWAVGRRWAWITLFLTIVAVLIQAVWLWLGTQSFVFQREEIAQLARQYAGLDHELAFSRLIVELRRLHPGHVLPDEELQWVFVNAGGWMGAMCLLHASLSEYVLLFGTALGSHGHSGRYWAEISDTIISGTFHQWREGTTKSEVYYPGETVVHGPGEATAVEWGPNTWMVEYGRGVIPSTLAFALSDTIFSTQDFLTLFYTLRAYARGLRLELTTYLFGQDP

CCCCNCCCc1ccccc1 [1a, N-(3-Phenylpropyl)butan-1-amine]
IC50 [1]: 50 µM | Ki [2]: 0.2 ± 0.02 µM | KI sigma-2 sites [3]: nanomolar affinities | sigma-2/sigma-1 [3]: 2

CCCCNCCCc1ccc([N+](=O)[O-])cc1 [1b, N-(3-(4-Nitrophenyl)propyl)butan-1-amine]
KI sigma-2 sites [3]: nanomolar affinities | sigma-2/sigma-1 [3]: 7

CCCCCCCNCCCc1ccc([N+](=O)[O-])cc1 [2b, N-(3-(4-Nitrophenyl)propyl)heptan-1-amine]
Ki [4]: > 10 µM | Ki [5]: > 10 µM | Ki ([6]; NIMH PDSP, [3H]8-OH-DPAT/0.5 nM): 0.05 µM | Ki ([6]; text statement on secondary screen): < 0.05 µM | Ki [7]: 1.1 µM | Ki [8]: > 10 µM | IC50 [9]: 73 ± 8 µM | activation of caspases 3/7, 8, and 9 [10]: did not activate | Ki [11]: 4 µM | IC50 [12]: 29 ± 1 µM | Ki [13]: 0.6 µM | Bmax of [3H]-(+)-pentazocine in the presence of 2b [14]: unchanged | IC50 [15]: 55 ± 5 µM | IC50 [16]: 40 ± 3 µM | Ki [17]: 1.1 µM | Ki [18]: > 10 µM | Ki [19]: 1.4 µM | Ki [20]: 0.014 µM | Ki [21]: 1.1 µM | IC50 [22]: 28 ± 1 µM | IC50 [23]: 53 ± 6 µM | IC50 [24]: 30 ± 1 µM | IC50 [25]: 30 ± 2 µM | KI sigma-2 sites [3]: nanomolar affinities | sigma-2/sigma-1 [3]: 1 | IC50 [26]: > 100 µM | Ki [27]: 0.3 µM | Ki [28]: 0.9 µM | Ki [29]: > 10 µM | Ki [30]: > 10 µM | IC50 [31]: 21 ± 1 µM | Ki [32]: 0.02 µM | IC50 [33]: 38 ± 4 µM

CCCCCCCCCCCCCCCCCCNCCCc1ccccc1 [4a, N-(3-Phenylpropyl)octadecan-1-amine]
KI sigma-2 sites [3]: micromolar affinities | sigma-2/sigma-1 [3]: 0.6

CCCCCCCCCCCCCCCCCCNCCCc1ccc([N+](=O)[O-])cc1 [4b, N-(3-(4-Nitrophenyl)propyl)octadecan-1-amine]
Ki [2]: 0.042 ± 0.007 µM | KI sigma-2 sites [3]: micromolar affinities | sigma-2/sigma-1 [3]: 0.3

CCCCCN [Amylamine]
Ki [2, 37]: 167 ± 35 µM

CCCCN [Butylamine, reference compound]
average inhibition of the Kv1.4 potassium channel [1]: 21% | Ki [2, 37]: 477 ± 67 µM

CCCCCCCN [Heptylamine, reference compound]
average inhibition of the Kv1.4 potassium channel [1]: 15%

CCCCCCCCN [Octylamine]
Ki [2, 37]: 6 ± 3 µM

CCCCCCCCCCCCCCN [Tretradecylamine]
Ki [2, 37]: 1 ± 0.03 µM

O=C(Cc1cccc(Br)c1)NC1CCN(Cc2ccc([18F])cc2)CC1 [[^18F]FBPBPA, N-[1-(4′-[^18F]fluorobenzyl)piperidin-4-yl]-3-bromophenylacetamide]
receptor-specific uptake of the tracer in the brain [34]: ~ 60% | receptor-specific uptake of the tracer in the tumor [34]: ~ 25%

C[C@@H]1CN(CCCn2c3ccccc3c3ccccc32)C[C@H](C)N1 [rimcazole]
activation of caspases 3/7 [35]: activate | activation of caspases 3/7 [36]: not found to activate
